Tests used:
Type in all cases: in vivo, female SD rats
[1] = tested on: Creatine phosphokinase (CPK); experiment: Creatine phosphokinase (CPK) value in blood, myocardial disorder induced by doxorubicin; settings: Test group 1: doxorubicin 13 mg/kg alone; day 14; p<0.05
Method: (§1) Doxorubicin is used to produce disease-model animals of cardiomyopathy. The doxorubicin and 2,3,5-trimethylhydroquinone-1-hexyl ether (HTHQ) as the hydroquinone derivative represented by the general formula (1) described above of the present invention were simultaneously administered to female SD rats of 4 week old after birth to examine the effect of the action. The test groups consisted of the control group to which sterile saline was administered; test group 1 to which doxorubicin (13 mg/kg body weight) alone was administered; test group 2 to which doxorubicin (13 mg/kg body weight) and HTHQ (50 mg/kg body weight) were administered in combination; and test group 3 to which doxorubicin (13 mg/kg body weight), HTHQ (50 mg/kg body weight) and recombinant human erythropoietin (400 IU/kg body weight) were administered in combination. The recombinant human erythropoietin (rHuEPO) is mainly used in the treatment of renal anemia etc., and has the effect to protect myocardium. The test group 3 is used to confirm the presence or absence of the inhibitory effect brought about by combining HTHQ and rHuEPO on myocardial disorder.
(§2) Doxorubicin was orally administered in a single dose to the rats in test groups 1 to 3. […]

[2] = tested on: Myocardial Disorder Induced by Doxorubicin; experiment: Histopathologic examination of the hearts (transmission electron microscope), myocardial disorder induced by doxorubicin; settings: Test group 1: doxorubicin 13 mg/kg alone; day 7
Method: as §1, with “The recombinant human erythropoietin (rHuEPO) is mainly used in the treatment of renal anemia etc., and has the effect to protect myocardium.” left out
Doxorubicin was orally administered in a single dose to the rats in test groups 1 to 3. 2,3,5-trimethylhydroquinone-1-hexyl ether (HTHQ) was orally administered to the rats in test groups 2 and 3 twice in total: 3 days before the administration of doxorubicin and on the day of the administration. […]

[3] = tested on: Myocardial Disorder Induced by Doxorubicin; experiment: Histopathologic examination of the hearts (light microscope), myocardial disorder induced by doxorubicin; settings: Test group 1: doxorubicin 13 mg/kg alone
Method: as §1, with “The recombinant human erythropoietin (rHuEPO) is mainly used in the treatment of renal anemia etc., and has the effect to protect myocardium.” left out
Doxorubicin was orally administered in a single dose to the rats in test groups 1 to 3. 2,3,5-trimethylhydroquinone-1-hexyl ether (HTHQ) was orally administered to the rats in test groups 2 and 3 twice in total: 3 days before the administration of doxorubicin and on the day of the administration. Recombinant human erythropoietin was daily administered to the rats in test group 3 starting from 3 days before the administration of doxorubicin by intravenous injection. The number of animals in each group was 16. 8 animals of each group were sacrificed after collecting blood on day 7 and 14 after the administration of doxorubicin, and the autopsy of the hearts, the calculation of the relative weights of the hearts, the histopathologic examination of the hearts and the hematological examination were conducted.
“−” indicates “not found”, “+” indicates “mild”, “++” indicates “moderate”, and “+++” indicates “severe” in severity scores of the table.

[4] = tested on: Myocardial Disorder Induced by Doxorubicin; experiment: Relative weights of the hearts, myocardial disorder induced by doxorubicin; settings: Test group 1: doxorubicin 13 mg/kg alone
Source text: Doxorubicin is used to produce disease-model animals of cardiomyopathy. […] The recombinant human erythropoietin (rHuEPO) is mainly used in the treatment of renal anemia etc., and has the effect to protect myocardium. The test group 3 is used to confirm the presence or absence of the inhibitory effect brought about by combining HTHQ and rHuEPO on myocardial disorder. […] Recombinant human erythropoietin was daily administered to the rats in test group 3 starting from 3 days before the administration of doxorubicin by intravenous injection. The number of animals in each group was 16. 8 animals of each group were sacrificed after collecting blood on day 7 and 14 after the administration of doxorubicin, and the autopsy of the hearts, the calculation of the relative weights of the hearts, the histopathologic examination of the hearts and the hematological examination were conducted. Myocardium is hypertrophied by fibrosing and the weight of the myocardium increases, and the relative weight of the heart tends to increase. […] Also, there was no significant difference between the other groups on day 7 and 14 after the administration (p<0.05).

[5] = tested on: Myocardial Disorder Induced by Doxorubicin; experiment: Autopsy and gross pathology of the hearts, myocardial disorder induced by doxorubicin; settings: test groups 1 to 3, doxorubicin 13 mg/kg; compared to the control group
Method: as §1, §2

COc1cccc2c1C(=O)c1c(O)c3c(c(O)c1C2=O)C[C@@](O)(C(=O)CO)C[C@@H]3O[C@H]1C[C@H](N)[C@H](O)[C@H](C)O1 [doxorubicin, reference compound]
creatine phosphokinase (CPK) value [1]: significantly higher than that of the control group | findings in myocardial cells (transmission electron microscope) [2]: Loss of striations, loss of intercalated discs, swelling of mitochondria, loss of mitochondrial outer membrane and detachment of cristae etc. were observed | Severity score: Cell infiltration in interstitial tissue ([3]; Day 7 after administration): + | Severity score: Degeneration of myocardial cells ([3]; Day 7 after administration): ++ | Severity score: Loss and disorganization of myocardial fibers ([3]; Day 7 after administration): ++ | Severity score: Loss of intercalated discs ([3]; Day 7 after administration): + | Severity score: Loss of striations ([3]; Day 7 after administration): ++ | Severity score: Vacuolation of myocardial fibers ([3]; Day 7 after administration): + | Severity score: Cell infiltration in interstitial tissue ([3]; Day 14 after administration): − | Severity score: Degeneration of myocardial cells ([3]; Day 14 after administration): +++ | Severity score: Loss and disorganization of myocardial fibers ([3]; Day 14 after administration): +++ | Severity score: Loss of intercalated discs ([3]; Day 14 after administration): ++ | Severity score: Loss of striations ([3]; Day 14 after administration): +++ | Severity score: Vacuolation of myocardial fibers ([3]; Day 14 after administration): +++ | relative weight of the heart ([4]; Day 7 after administration): 0.3819 ± 0.0204% | relative weight of the heart ([4]; Day 14 after administration): 0.3626 ± 0.0221% | gross pathology of the hearts [5]: Apparent lesions were not observed

Reference: patent US20180049996A1, “THERAPEUTIC AGENT FOR CHRONIC RESPIRATORY DISEASE AND COMPOSITION FOR INHIBITING CARDIAC FIBROSIS” (NIPPON HYPOX LABORATORIES INCORPORATED, priority 2015, published 2018)
